Laboratory results published in patent publication US20200339691A1, “PROTEINACEOUS MOLECULES AND USES THEREFOR” (priority 2018, published 2020).
Where a SMILES comes first, the peptide text is derived from it. The star is where a group is joined. Myristoyl = CCCCCCCCCCCCCC(=O)*

Columns and labels:
[1] = tested on: CD44^hiCD24^lo CSCs in MDA-MB-231 cells; test: FACS analysis of CD44^hiCD24^lo cancer stem cells in MDA-MB-231 cells treated with P1 analogues; format: cell-based, human; settings: 50 μM peptide, 48 hours; for CD44^hiCD24^lo CSCs (%) / COI, Live Single CD44^hiCD24^lo CSCs (Cell Count): n = 1; for Average Inhibition of CSCs (%) / CD44^hiCD24^lo CSCs (%) Repeat 1 / CD44^hiCD24^lo CSCs (%) Repeat 2 / CD44^hiCD24^lo CSCs (%) Repeat 3: n = 3
Method: Analogues of P1 (Table 6) were designed and synthesized in accordance with the procedure of Example 5. The ability of these analogues to inhibit cancer stem cells was determined using FACS analysis on MDA-MB-231 cells, which constitutively contain approximately 90% CD44^hiCD24^lo cancer stem cells, treated with the peptides.
(§1) Non-adherent cells were removed during the washing steps.

[2] = tested on: MDA-MB-231 cells; format: cell-based, human; settings: 50 μM peptide, 48 hours, n = 1;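 for COI, Live Single Cells (Cell Count): live means Hoechst-negative events among single cells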
Description: as §1

SMILES: CCCCCCCCCCCCCC(=O)N[C@H](C(=O)N[C@@H](Cc1ccccc1)C(=O)N[C@H](C(=O)N[C@@H](Cc1ccccc1)C(=O)N[C@@H](CCCNC(=N)N)C(=O)N[C@@H](CC(C)C)C(=O)N[C@@H](CCCNC(=N)N)C(=O)N[C@@H](CCCCN)C(=O)NCC(=O)N[C@@H](CCCNC(=N)N)C(=O)N[C@@H](CCSC)C(=O)N[C@@H](CCSC)C(=O)N[C@@H](CC(=O)O)C(=O)N[C@H](C(=O)N[C@@H](CCCCN)C(=O)N[C@@H](C)C(N)=O)C(C)C)[C@@H](C)CC)[C@@H](C)O [Peptide 2815317, Myristoyl-TFIFRLRKGRMMDVKA-NH2] (Myristoyl-TFIFRLRKGRMMDVKA-NH2)
- Inhibition of CSCs (%) Repeat 1 [1]: 47.53%
- Inhibition of CSCs (%) Repeat 2 [1]: 46.46%
- Inhibition of CSCs (%) Repeat 3 [1]: 63.38%
- CD44^hiCD24^lo CSCs (%) [1]: 40.91%
- COI, Live Single CD44^hiCD24^lo CSCs (Cell Count) [1]: 18
- Average Inhibition of CSCs (%) [1]: 52.46%
- CD44^hiCD24^lo CSCs (%) Repeat 1 [1]: 47.02%
- CD44^hiCD24^lo CSCs (%) Repeat 2 [1]: 48.03%
- CD44^hiCD24^lo CSCs (%) Repeat 3 [1]: 32.86%
- COI (Cell Count) [2]: 88
- COI, Live Single Cells (Cell Count) [2]: 44
- COI, Single (Cell Count) [2]: 79
- Total Cell Count [2]: 8821

SMILES: CCCCCCCCCCCCCC(=O)N[C@@H](CC(C)C)C(=O)N[C@H](C(=O)N[C@H](C(=O)N[C@H](C(=O)N[C@@H](Cc1ccccc1)C(=O)N[C@@H](CCCNC(=N)N)C(=O)N[C@@H](CC(C)C)C(=O)N[C@@H](CCCNC(=N)N)C(=O)N[C@@H](CCCCN)C(=O)NCC(=O)N[C@@H](CCCNC(=N)N)C(=O)N[C@@H](CCSC)C(=O)N[C@@H](CCSC)C(=O)N[C@@H](CC(=O)O)C(=O)N[C@H](C(=O)N[C@@H](CCCCN)C(=O)N[C@@H](CCCCN)C(N)=O)C(C)C)[C@@H](C)CC)C(C)C)[C@@H](C)O [Peptide 2853809, Myristoyl-LTVIFRLRKGRMMDVKK-NH2] (Myristoyl-LTVIFRLRKGRMMDVKK-NH2)
- Inhibition of CSCs (%) Repeat 1 [1]: 49.62%
- Inhibition of CSCs (%) Repeat 2 [1]: 53.48%
- Inhibition of CSCs (%) Repeat 3 [1]: 60.55%
- CD44^hiCD24^lo CSCs (%) [1]: 35.61%
- COI, Live Single CD44^hiCD24^lo CSCs (Cell Count) [1]: 537
- Average Inhibition of CSCs (%) [1]: 54.55%
- CD44^hiCD24^lo CSCs (%) Repeat 1 [1]: 45.15%
- CD44^hiCD24^lo CSCs (%) Repeat 2 [1]: 41.73%
- CD44^hiCD24^lo CSCs (%) Repeat 3 [1]: 35.40%
- COI (Cell Count) [2]: 1736
- COI, Live Single Cells (Cell Count) [2]: 1508
- COI, Single (Cell Count) [2]: 1560
- Total Cell Count [2]: 3548

SMILES: CCCCCCCCCCCCCC(=O)N[C@H](C(=O)N[C@@H](Cc1ccccc1)C(=O)N[C@H](C(=O)N[C@@H](C)C(=O)N[C@@H](CCCNC(=N)N)C(=O)N[C@@H](CC(C)C)C(=O)N[C@@H](CCCNC(=N)N)C(=O)N[C@@H](CCCCN)C(=O)NCC(=O)N[C@@H](CCCNC(=N)N)C(=O)N[C@@H](CCSC)C(=O)N[C@@H](CCSC)C(=O)N[C@@H](CC(=O)O)C(=O)N[C@H](C(=O)N[C@@H](CCCCN)C(=O)N[C@@H](CCCCN)C(N)=O)C(C)C)[C@@H](C)CC)[C@@H](C)O [Peptide 2815305, Myristoyl-TFIARLRKGRMMDVKK-NH2] (Myristoyl-TFIARLRKGRMMDVKK-NH2)
- Inhibition of CSCs (%) Repeat 1 [1]: 7.19%
- Inhibition of CSCs (%) Repeat 2 [1]: 10.83%
- Inhibition of CSCs (%) Repeat 3 [1]: 2.94%
- CD44^hiCD24^lo CSCs (%) [1]: 93.18%
- COI, Live Single CD44^hiCD24^lo CSCs (Cell Count) [1]: 82
- Average Inhibition of CSCs (%) [1]: 6.99%
- CD44^hiCD24^lo CSCs (%) Repeat 1 [1]: 83.18%
- CD44^hiCD24^lo CSCs (%) Repeat 2 [1]: 80.00%
- CD44^hiCD24^lo CSCs (%) Repeat 3 [1]: 87.10%
- COI (Cell Count) [2]: 129
- COI, Live Single Cells (Cell Count) [2]: 88
- COI, Single (Cell Count) [2]: 121
- Total Cell Count [2]: 2870

SMILES: CCCCCCCCCCCCCC(=O)N[C@@H](CC(C)C)C(=O)N[C@H](C(=O)N[C@@H](Cc1ccccc1)C(=O)N[C@H](C(=O)N[C@@H](CCC(=O)O)C(=O)N[C@@H](CCCNC(=N)N)C(=O)N[C@@H](CC(C)C)C(=O)N[C@@H](CCCNC(=N)N)C(=O)N[C@@H](CCCCN)C(=O)NCC(=O)N[C@@H](CCCNC(=N)N)C(=O)N[C@@H](CCSC)C(=O)N[C@@H](CCSC)C(=O)N[C@@H](CC(=O)O)C(=O)N[C@H](C(=O)N[C@@H](CCCCN)C(=O)N[C@@H](CCCCN)C(N)=O)C(C)C)[C@@H](C)CC)[C@@H](C)O [Peptide 2853813, Myristoyl-LTFIERLRKGRMMDVKK-NH2] (Myristoyl-LTFIERLRKGRMMDVKK-NH2)
- Inhibition of CSCs (%) Repeat 1 [1]: 77.05%
- Inhibition of CSCs (%) Repeat 2 [1]: 75.44%
- Inhibition of CSCs (%) Repeat 3 [1]: 67.63%
- CD44^hiCD24^lo CSCs (%) [1]: 27.78%
- COI, Live Single CD44^hiCD24^lo CSCs (Cell Count) [1]: 5
- Average Inhibition of CSCs (%) [1]: 73.37%
- CD44^hiCD24^lo CSCs (%) Repeat 1 [1]: 20.57%
- CD44^hiCD24^lo CSCs (%) Repeat 2 [1]: 22.04%
- CD44^hiCD24^lo CSCs (%) Repeat 3 [1]: 29.05%
- COI (Cell Count) [2]: 55
- COI, Live Single Cells (Cell Count) [2]: 18
- COI, Single (Cell Count) [2]: 48
- Total Cell Count [2]: 867

SMILES: CCCCCCCCCCCCCC(=O)N[C@@H](CC(C)C)C(=O)N[C@H](C(=O)N[C@@H](Cc1ccccc1)C(=O)N[C@H](C(=O)N[C@@H](Cc1ccc(O)cc1)C(=O)N[C@@H](CCCNC(=N)N)C(=O)N[C@@H](CC(C)C)C(=O)N[C@@H](CCCNC(=N)N)C(=O)N[C@@H](CCCCN)C(=O)NCC(=O)N[C@@H](CCCNC(=N)N)C(=O)N[C@@H](CCSC)C(=O)N[C@@H](CCSC)C(=O)N[C@@H](CC(=O)O)C(=O)N[C@H](C(=O)N[C@@H](CCCCN)C(=O)N[C@@H](CCCCN)C(N)=O)C(C)C)[C@@H](C)CC)[C@@H](C)O [Peptide 2853814, Myristoyl-LTFIYRLRKGRMMDVKK-NH2] (Myristoyl-LTFIYRLRKGRMMDVKK-NH2)
- Inhibition of CSCs (%) Repeat 1 [1]: 73.80%
- Inhibition of CSCs (%) Repeat 2 [1]: 76.59%
- Inhibition of CSCs (%) Repeat 3 [1]: 77.85%
- CD44^hiCD24^lo CSCs (%) [1]: 13.86%
- COI, Live Single CD44^hiCD24^lo CSCs (Cell Count) [1]: 51
- Average Inhibition of CSCs (%) [1]: 76.08%
- CD44^hiCD24^lo CSCs (%) Repeat 1 [1]: 23.48%
- CD44^hiCD24^lo CSCs (%) Repeat 2 [1]: 21.00%
- CD44^hiCD24^lo CSCs (%) Repeat 3 [1]: 19.88%
- COI (Cell Count) [2]: 437
- COI, Live Single Cells (Cell Count) [2]: 368
- COI, Single (Cell Count) [2]: 387
- Total Cell Count [2]: 999

SMILES: CCCCCCCCCCCCCC(=O)N[C@@H](CC(C)C)C(=O)N[C@H](C(=O)N[C@@H](Cc1ccccc1)C(=O)N[C@H](C(=O)N[C@@H](Cc1ccccc1)C(=O)N[C@@H](CCCNC(=N)N)C(=O)N[C@@H](CC(C)C)C(=O)N[C@@H](CCCNC(=N)N)C(=O)N[C@@H](CCCCN)C(=O)NCC(=O)N[C@@H](CCCNC(=N)N)C(=O)N[C@@H](CCSC)C(=O)N[C@@H](CCSC)C(=O)N[C@@H](CC(=O)O)C(=O)N[C@H](C(=O)N[C@@H](Cc1ccc(O)cc1)C(=O)N[C@@H](CCCCN)C(N)=O)C(C)C)[C@@H](C)CC)[C@@H](C)O [Peptide 2853843, Myristoyl-LTFIFRLRKGRMMDVYK-NH2] (Myristoyl-LTFIFRLRKGRMMDVYK-NH2)
- Inhibition of CSCs (%) Repeat 1 [1]: 87.60%
- Inhibition of CSCs (%) Repeat 2 [1]: 82.06%
- Inhibition of CSCs (%) Repeat 3 [1]: 90.31%
- CD44^hiCD24^lo CSCs (%) [1]: 7.50%
- COI, Live Single CD44^hiCD24^lo CSCs (Cell Count) [1]: 6
- Average Inhibition of CSCs (%) [1]: 86.66%
- CD44^hiCD24^lo CSCs (%) Repeat 1 [1]: 11.11%
- CD44^hiCD24^lo CSCs (%) Repeat 2 [1]: 16.09%
- CD44^hiCD24^lo CSCs (%) Repeat 3 [1]: 8.70%
- COI (Cell Count) [2]: 402
- COI, Live Single Cells (Cell Count) [2]: 80
- COI, Single (Cell Count) [2]: 298
- Total Cell Count [2]: 9152

SMILES: CCCCCCCCCCCCCC(=O)N[C@@H](CC(C)C)C(=O)N[C@H](C(=O)N[C@@H](Cc1ccccc1)C(=O)N[C@H](C(=O)N[C@@H](CC(C)C)C(=O)N[C@@H](CCCNC(=N)N)C(=O)N[C@@H](CC(C)C)C(=O)N[C@@H](CCCNC(=N)N)C(=O)N[C@@H](CCCCN)C(=O)NCC(=O)N[C@@H](CCCNC(=N)N)C(=O)N[C@@H](CCSC)C(=O)N[C@@H](CCSC)C(=O)N[C@@H](CC(=O)O)C(=O)N[C@H](C(=O)N[C@@H](CCCCN)C(=O)N[C@@H](CCCCN)C(N)=O)C(C)C)[C@@H](C)CC)[C@@H](C)O [Peptide 2853816, Myristoyl-LTFILRLRKGRMMDVKK-NH2] (Myristoyl-LTFILRLRKGRMMDVKK-NH2)
- Inhibition of CSCs (%) Repeat 1 [1]: 69.57%
- Inhibition of CSCs (%) Repeat 2 [1]: 68.04%
- Inhibition of CSCs (%) Repeat 3 [1]: 65.42%
- CD44^hiCD24^lo CSCs (%) [1]: 12.50%
- COI, Live Single CD44^hiCD24^lo CSCs (Cell Count) [1]: 12
- Average Inhibition of CSCs (%) [1]: 67.68%
- CD44^hiCD24^lo CSCs (%) Repeat 1 [1]: 27.27%
- CD44^hiCD24^lo CSCs (%) Repeat 2 [1]: 28.67%
- CD44^hiCD24^lo CSCs (%) Repeat 3 [1]: 31.03%
- COI (Cell Count) [2]: 160
- COI, Live Single Cells (Cell Count) [2]: 96
- COI, Single (Cell Count) [2]: 130
- Total Cell Count [2]: 1747
